# In patent US12037324B2, “Biarylmethyl heterocycles” (Université de Montréal, priority 2016, dated 2024):
# Legend:
# Type in all cases: cell-based
# AGTR1 [1] = target: T1, AGTR1 (Homo sapiens, UniProt P30556); test: DiscoveRx β-arrestin2 recruitment assay (enzyme complementation, Pathunter CHO-K1 AGTR1 β-arrestin cell line); conditions: DiscoveRx β-arrestin2 recruitment; for DiscoveRx β-arrestin2 Ymax (%): maximal response
# T1 construct: host or cells: Pathunter CHO-K1 AGTR1 β-arrestin cell line (CHO-K1)
# T1 sequence (P30556 1-359): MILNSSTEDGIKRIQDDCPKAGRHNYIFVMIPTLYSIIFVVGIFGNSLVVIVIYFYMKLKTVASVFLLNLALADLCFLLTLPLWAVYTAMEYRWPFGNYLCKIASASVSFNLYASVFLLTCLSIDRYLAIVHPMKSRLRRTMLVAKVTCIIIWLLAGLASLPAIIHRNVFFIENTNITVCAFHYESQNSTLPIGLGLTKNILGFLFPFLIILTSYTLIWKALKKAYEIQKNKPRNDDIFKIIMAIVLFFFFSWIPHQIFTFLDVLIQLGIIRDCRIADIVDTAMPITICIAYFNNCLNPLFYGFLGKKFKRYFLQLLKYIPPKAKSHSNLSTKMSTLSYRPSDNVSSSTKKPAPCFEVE
# Procedure: In one aspect of the invention, signaling bias of compounds was assessed by comparing the relative activity of compounds to activate both the β-arrestin and Gq signaling pathways. In order to confirm signaling bias, compounds were studied in two different assay formats. DiscoveRx β-arrestin2 Recruitment and IP1 Assays β-arrestin2 recruitment to activated receptors can be assessed using an enzyme complementation method (Zhao, Jones et al. 2008). […] Cells (5000/well) were plated into 1536 well plates (Cellocoat plates, Greiner Bio One, Monroe, NC) 14-16 hours before each experiment in 20 μl DMEM/F12 medium (Thermo-Fisher Scientific, Carlsbad, CA) containing heat-inactivated 1% fetal bovine serum. Subsequently, the compounds of interest were added at varying concentrations to the wells in a volume of 200 nl and the cells incubated for 90 min at 37° C. The detection reagent (10 μl) was added to each well and the plates incubated at room temperature for 1 hour before measurement of chemiluminescence using an EnVision Multilabel Reader (Perkin-Elmer, Waltham, MA). The data are processed using Toolset for Runmaster QCMulti. Concentration-response curves are fitted and EC50s (agonist mode) and IC50s (antagonist mode) estimated using a 4-parameter logistic equation. Compound activities are reported as a relative percentage to the maximal effect of All in the assays.
# AGTR1 [2] = target: T1, AGTR1; test: DiscoveRx IP1 accumulation assay (HTRF), agonist mode, Pathunter CHO-K1 AGTR1 β-arrestin cell line; conditions: for EC50: read-out: IP-1 EC50
# Procedure: In one aspect of the invention, signaling bias of compounds was assessed by comparing the relative activity of compounds to activate both the β-arrestin and Gq signaling pathways. In order to confirm signaling bias, compounds were studied in two different assay formats.
# DiscoveRx β-arrestin2 Recruitment and IP1 Assays
# Gq activation can be assessed by measuring the accumulation of inositol phosphates (e.g. IP3, IP1) that are liberated following activation of phospholipase C by Gq (Thomsen, Frazer et al. 2005). In the current invention we have utilized the DiscoveRx Pathunter CHO-K1 AGTR1 β-arrestin cell line to also measure IP1 accumulation in response to compounds. IP1 accumulation was measured in both agonist and antagonist modes. In agonist mode, cells are plated as above 14-16 hours before the experiment. The medium is then removed and compounds at varying concentrations added in a final volume of 20 μl. The cells are incubated at 37° C. for 90 min. IP1 accumulation detected using a commercial HTRF assay according to manufacturer's instructions (Cisbio, Bedford, MA). Specifically, 4 μl of D2-conjugate solution (diluted 1:20 in Cisbio HTRF assay buffer) is added to each well, followed by the addition of 4 μl of anti-IP1 cryptate diluted 1:20 in HTRF assay buffer and the plates incubated for 20 min at room temperature. 14 μl from each well is measured using an Envision multi-label reader and data processed using Toolset for Runmaster QCMulti. Concentration-response curves are fitted and EC50s (agonist mode) and IC50s (antagonist mode) estimated using a 4-parameter logistic equation. Compound activities are reported as a relative percentage to the maximal effect of All in the assays.
# hAT1R = target: T2, hAT1R (Homo sapiens, UniProt P30556); test: BRET β-arrestin2 biosensor assay, higher receptor expression (hAT1R 5 ng/well), HEK293 cells; conditions: for EC50: High AT1R Expression
# T2 sequence (P30556 1-359): T1 sequence (P30556 1-359)
SMILES,EC50 (AGTR1 [1]) [µM],DiscoveRx β-arrestin2 Ymax (%) (AGTR1 [1]),IP-1 Ymax (%) (AGTR1 [2]),EC50 (AGTR1 [2]) [µM],BRET β-Arrestin2 High AT1R Expression Ymax (%) (hAT1R),EC50 (hAT1R) [µM]
"CCc1nc2c(C)cc(C)nc2n1Cc1ccc(-c2cc(C3CCCO3)ccc2-c2nn[nH]n2)cc1 (single isomer, unassigned) [Example 73, 2-ethyl-5,7-dimethyl-3-((5′-(tetrahydrofuran-2-yl)-2′-(2H-tetrazol-5-yl)-[1,1′-biphenyl]-4-yl)methyl)-3H-imidazo[4,5-b]pyridine]",0.108,26.4,11.6,5.94,–,–
"CCc1nc2c(C)cc(C)nc2n1Cc1ccc(-c2cc(C3CCCO3)ccc2-c2nn[nH]n2)cc1 (single isomer, unassigned) [Example 74, 2-ethyl-5,7-dimethyl-3-((5′-(tetrahydrofuran-2-yl)-2′-(2H-tetrazol-5-yl)-[1,1′-biphenyl]-4-yl)methyl)-3H-imidazo[4,5-b]pyridine]",0.391,3.9,–,> 100,3.2,> 100
"CCc1nc2c(C)cc(C)nc2n1Cc1ccc(-c2cc(C3CCCCN3)ccc2-c2nn[nH]n2)cc1 (single isomer, unassigned) [Example 75, 2-ethyl-5,7-dimethyl-3-((5′-(piperidin-2-yl)-2′-(2H-tetrazol-5-yl)-[1,1′-biphenyl]-4-yl)methyl)-3H-imidazo[4,5-b]pyridine]",0.543,7.1,–,> 100,53.9,1.12
"CCc1nc2c(C)cc(C)nc2n1Cc1ccc(-c2cc(C3CCCCN3)ccc2-c2nn[nH]n2)cc1 (single isomer, unassigned) [Example 76, 2-ethyl-5,7-dimethyl-3-((5′-(piperidin-2-yl)-2′-(2H-tetrazol-5-yl)-[1,1′-biphenyl]-4-yl)methyl)-3H-imidazo[4,5-b]pyridine]",0.84,13.2,–,> 100,–,–
"CCCC1=NC2(CCOC2)C(=O)N1Cc1ccc(-c2cc(-c3ccccc3)ccc2-c2nn[nH]n2)cc1 (single isomer, unassigned) [Example 158, 3-((6′-(2H-tetrazol-5-yl)-[1,1′:3′,1″-terphenyl]-4-yl)methyl)-2-propyl-7-oxa-1,3-diazaspiro[4.4]non-1-en-4-one]",0.191,41.6,8.6,0.214,–,–
"CCc1nc2c(C)cc(C)nc2n1Cc1ccc(-c2cc(N3CCCCCC3)ccc2-c2nn[nH]n2)cc1 [Example 95, 3-((5′-(azepan-1-yl)-2′-(2H-tetrazol-5-yl)-[1,1′-biphenyl]-4-yl)methyl)-2-ethyl-5,7-dimethyl-3H-imidazo[4,5-b]pyridine]",0.137,21.0,6.3,0.249,–,–
CCCCC1=NC2(CCCC2)C(=O)N1Cc1ccc(-c2cc(N3CCC(C)(C)CC3)ccc2-c2nn[nH]n2)cc1 [Example 101],0.03,21.4,–,> 100,–,–
CCCCC1=NC2(CCCC2)C(=O)N1Cc1ccc(-c2cc(N3CCC(C)C3)ccc2-c2nn[nH]n2)cc1 (stereo not drawn) [Example 103],0.112,8.8,–,> 100,–,–
CCCCC1=NC2(CCCC2)C(=O)N1Cc1ccc(-c2cc(N3CC4(CC4)c4ccccc43)ccc2-c2nn[nH]n2)cc1 [Example 108],0.0423,38.8,12.8,0.219,–,–
CCCCC1=NC2(CCCC2)C(=O)N1Cc1ccc(-c2cc(-c3cncc(OC)c3)ccc2-c2nn[nH]n2)cc1 [Example 132],0.0872,14.1,–,–,22.0,0.496
CCCCC1=NC2(CCCC2)C(=O)N1Cc1ccc(-c2cc(-c3ccccn3)ccc2-c2nn[nH]n2)cc1 [Example 140],0.0097,22.1,4.5,0.0261,–,–
"CCc1nc2c(C)cc(C)nc2n1Cc1ccc(-c2cc(-c3ccccc3)ccc2C(=O)O)nc1 [Example 201, 3-(5-((2-ethyl-5,7-dimethyl-3H-imidazo[4,5-b]pyridin-3-yl)methyl)pyridin-2-yl)biphenyl-4-carboxylic acid]",0.348,7.0,5.6,0.454,–,–
"CCCCc1nc(Cl)c(C(=O)O)n1Cc1ccc(-c2cc(N3CCc4ccccc43)ccc2-c2noc(=O)[nH]2)cc1 [Example 406, 2-butyl-4-chloro-1-((5′-(indolin-1-yl)-2′-(5-oxo-4,5-dihydro-1,2,4-oxadiazol-3-yl)-[1,1′-biphenyl]-4-yl)methyl)-1H-imidazole-5-carboxylic acid]",0.009,33.9,–,–,97.5,0.0106

# More lines, main results first:
EC50 (AGTR1 [1]) [µM],DiscoveRx β-arrestin2 Ymax (%) (AGTR1 [1]),IP-1 Ymax (%) (AGTR1 [2]),EC50 (AGTR1 [2]) [µM],SMILES,BRET β-Arrestin2 High AT1R Expression Ymax (%) (hAT1R),EC50 (hAT1R) [µM]
0.0226,14.9,2.4,0.0217,CCc1nc2c(C)cc(C)nc2n1Cc1ccc(-c2cc(-c3ccc(N(C)C)cc3)ccc2-c2nn[nH]n2)cc1 [Example 15],–,–
0.0157,11.9,3.3,0.0087,CCc1nc2c(C)cc(C)nc2n1Cc1ccc(-c2cc(-c3ccc4c(ccn4C)c3)ccc2-c2nn[nH]n2)cc1 [Example 17],–,–
0.14,54.2,15.4,0.499,CCc1nc2c(C)cc(C)nc2n1Cc1ccc(-c2cc(-c3ccc(C)cc3)ccc2-c2nn[nH]n2)cc1 [Example 18],–,–
0.0108,25.0,7.5,0.0242,"CCc1nc2c(C)cc(C)nc2n1Cc1ccc(-c2cc(Nc3ccc(F)cc3)ccc2-c2nn[nH]n2)cc1 [Example 26, 4′-((2-ethyl-5,7-dimethyl-3H-imidazo[4,5-b]pyridin-3-yl)methyl)-N-(4-fluorophenyl)-6-(2H-tetrazol-5-yl)-[1,1′-biphenyl]-3-amine]",–,–
0.322,11.9,2.3,3.78,"CCc1nc2c(C)cc(C)nc2n1Cc1ccc(-c2cc(N3CCCC3=O)ccc2-c2nn[nH]n2)cc1 [Example 28, 1-(4′-((2-ethyl-5,7-dimethyl-3H-imidazo[4,5-b]pyridin-3-yl)methyl)-6-(2H-tetrazol-5-yl)-[1,1′-biphenyl]-3-yl)pyrrolidin-2-one]",–,–
0.0093,44.9,6.8,0.0268,CCc1nc2c(C)cc(C)nc2n1Cc1ccc(-c2cc(-c3ccsc3)ccc2-c2nn[nH]n2)cc1 [Example 55],–,–
0.159,38.0,–,> 100,CCc1nc2c(C)cc(C)nc2n1Cc1ccc(-c2cc(N3CCC[C@@H](C)C3)ccc2-c2nn[nH]n2)cc1 [Example 86],–,–
0.0081,22.1,–,> 100,CCc1nc2c(C)cc(C)nc2n1Cc1ccc(-c2cc(N3CCC[C@H](C)C3)ccc2-c2nn[nH]n2)cc1 [Example 88],–,–
0.0494,22.5,–,> 100,CCc1nc2c(C)cc(C)nc2n1Cc1ccc(-c2cc(N3CC[C@H](C)C3)ccc2-c2nn[nH]n2)cc1 [Example 89],–,–
